Test results reported in ChEMBL document CHEMBL4346675, “Multi-target compounds acting in cancer progression: Focus on thiosemicarbazone, thiazole and thiazolidinone analogues” (Eur J Med Chem, 2019).

Legend:
[1] = test system: MIA PaCa-2; experiment: Cytotoxicity against human MIAPaCa2 cells incubated for 24 hrs by MTT assay; format: functional, cell-based; conditions: MIA PaCa-2, 24 h
[2] = test system: PANC-1; experiment: Cytotoxicity against human PANC1 cells incubated for 24 hrs by MTT assay; format: functional, cell-based; conditions: PANC-1, 24 h
[3] = test system: CFPAC-1; experiment: Cytotoxicity against human CFPAC-1 cells incubated for 24 hrs by MTT assay; format: functional, cell-based; conditions: CFPAC-1, 24 h
[4] = test system: Capan-2; experiment: Cytotoxicity against human Capan2 cells incubated for 24 hrs by MTT assay; format: functional, cell-based; conditions: Capan-2, 24 h
[5] = test system: L1210; experiment: Growth inhibition of mouse L1210 cells by MTS assay; format: functional, cell-based
[6] = test system: HepG2; experiment: Cytotoxicity against human HepG2 cells incubated for 48 hrs by MTT assay; format: functional, cell-based; conditions: HepG2, 48 h
[7] = target: Epidermal growth factor receptor (Homo sapiens) (UniProt P00533); experiment: Inhibition of EGFR (unknown origin) at 10 uM by immunoassay relative to control
[8] = target: Tubulin (Homo sapiens) (UniProt P68371+Q9H4B7+P0DPH7+P68366+Q13509+Q71U36+P04350+Q3ZCM7+P07437+P68363+Q9BQE3+Q6PEY2+Q13885+Q9BVA1+Q9BUF5); experiment: Inhibition of tubulin polymerization (unknown origin) at 3 uM incubated for 1 hr by fluorescence assay relative to control; format: protein-complex assay
[9] = test system: NIH3T3; experiment: Anti-invasive activity against mouse NIH/3T3 cells transfected with human AdoMetDC cDNA in sense orientation assessed as inhibition of cell invasion at 100 ng/ml incubated for 1 weeks by matrigel-based microscopic analysis relative to control; format: functional; conditions: NIH3T3, 168 h
[10] = test system: MDA-MB-231; experiment: Anti-invasive activity against human MDA-MB-231 cells at 30 nM by crystal violet staining based Boyden chamber assay relative to control; format: functional
[11] = test system: NIH3T3; experiment: Anti-invasive activity against mouse NIH/3T3 cells transfected with human AdoMetDC cDNA in antisense orientation assessed as inhibition of cell invasion at 100 ng/ml incubated for 1 weeks by matrigel-based microscopic analysis relative to control; format: functional; conditions: NIH3T3, 168 h
[12] = test system: MDA-MB-231; experiment: Cytotoxicity against human MDA-MB-231 cells incubated for 48 hrs by MTT assay; format: functional, cell-based; conditions: MDA-MB-231, 48 h
[13] = test system: Jurkat; experiment: Cytotoxicity against human Jurkat cells incubated for 72 hrs by MTT assay; format: functional
[14] = test system: HT-29; experiment: Cytotoxicity against human HT-29 cells incubated for 72 hrs by MTT assay; format: functional; conditions: HT-29, 72 h
[15] = target: Hepatocyte growth factor activator serine protease (Homo sapiens, UniProt Q04756); experiment: Inhibition of recombinant HGFA serine protease domain (unknown origin) preincubated for 30 mins followed by Boc-QLR-AMC substrate addition by fluorescence assay
[16] = target: Suppressor of tumorigenicity 14 protein (Homo sapiens, UniProt Q9Y5Y6); experiment: Inhibition of recombinant human matriptase preincubated for 30 mins followed by Boc-QLR-AMC substrate addition by fluorescence assay
[17] = target: Coagulation factor X (Homo sapiens, UniProt P00742); experiment: Inhibition of recombinant factor 10a (unknown origin) preincubated for 30 mins followed by chromogenic substrate addition by fluorescence assay
[18] = target: Serine protease hepsin (Homo sapiens, UniProt P05981); experiment: Inhibition of recombinant human hepsin preincubated for 30 mins followed by Boc-QLR-AMC substrate addition by fluorescence assay
[19] = Cytotoxicity against mouse DLA cells incubated for 48 hrs by trypan blue dye based assay; format: functional, cell-based
[20] = Cytotoxicity against mouse DLA cells incubated for 48 hrs by LDH release assay; format: functional, cell-based
[21] = Cytotoxicity against mouse DLA cells incubated for 48 hrs by MTT assay; format: functional, cell-based
[22] = test system: CT26; experiment: Cytotoxicity against mouse CT26 cells incubated for 48 hrs by MTT assay; format: functional, cell-based; conditions: CT26, 48 h
[23] = test system: 4T1; experiment: Cytotoxicity against mouse 4T1 cells incubated for 48 hrs by MTT assay; format: functional, cell-based; conditions: 4T1, 48 h
[24] = test system: Lewis lung carcinoma cell line; experiment: Cytotoxicity against mouse LLC cells incubated for 48 hrs by MTT assay; format: functional, cell-based
[25] = test system: DU-145; experiment: Cytotoxicity against human DU145 cells incubated for 48 hrs by MTT assay; format: functional, cell-based; conditions: DU-145, 48 h
[26] = test system: HK-2; experiment: Cytotoxicity against human HK2 cells incubated for 48 hrs by MTT assay; format: cell-based; conditions: HK-2, 48 h
[27] = test system: HeLa; experiment: Cytotoxicity against human HeLa cells incubated for 48 hrs by MTT assay; format: functional, cell-based
[28] = test system: 4T1; experiment: Antitumor activity against mouse 4T1 cells implanted in BALB/c mouse assessed as median number of metastases per lung at 50 mg/kg, ig administered daily post implantation (reference value: 40.5); format: functional
[29] = test system: 4T1; experiment: Antitumor activity against mouse 4T1 cells implanted in BALB/c mouse assessed as median number of metastases per lung at 100 mg/kg, ig administered daily post implantation (reference value: 40.5); format: functional
[30] = test system: A549; experiment: Cytotoxicity against human A549 cells incubated for 48 hrs by MTT assay; format: functional, cell-based; conditions: A549, 48 h
[31] = test system: 4T1; experiment: Inhibition of colony formation in mouse 4T1 cells assessed as colony forming units at 1.25 uM incubated for 7 to 10 days by crystal violet staining based microscopic method (reference value: 364 +/- 46.4 No unit); format: functional
[32] = test system: L02; experiment: Cytotoxicity against human L02 cells incubated for 48 hrs by MTT assay; format: cell-based; conditions: L02, 48 h
[33] = test system: 4T1; experiment: Inhibition of colony formation in mouse 4T1 cells assessed as assessed as colony forming units at 2.5 uM incubated for 7 to 10 days by crystal violet staining based microscopic method (reference value: 364 +/- 46.4 No unit); format: functional
[34] = Cytotoxicity against mouse Meth-A cells incubated for 48 hrs by MTT assay; format: functional, cell-based
[35] = Cytotoxicity against mouse MM3MG cells incubated for 48 hrs by MTT assay; format: functional, cell-based
[36] = test system: B16; experiment: Cytotoxicity against mouse B16 cells incubated for 48 hrs by MTT assay; format: functional, cell-based; conditions: B16, 48 h
[37] = target: Histone deacetylase 1 (Homo sapiens, UniProt Q13547); experiment: Inhibition of HDAC1 (unknown origin) using Ac-peptide as substrate pretreated for 15 mins followed by substrate addition and measured after 60 mins by fluorescence assay
[38] = target: Prothrombin (Homo sapiens, UniProt P00734); experiment: Inhibition of recombinant thrombin (unknown origin) preincubated for 30 mins followed by chromogenic substrate addition by fluorescence assay
[39] = target: Proto-oncogene tyrosine-protein kinase Src (Homo sapiens, UniProt P12931); experiment: Inhibition of SRC (unknown origin) by Z'-LYTE assay
Sequence of Proto-oncogene tyrosine-protein kinase Src (P12931 2-536 limits assumed): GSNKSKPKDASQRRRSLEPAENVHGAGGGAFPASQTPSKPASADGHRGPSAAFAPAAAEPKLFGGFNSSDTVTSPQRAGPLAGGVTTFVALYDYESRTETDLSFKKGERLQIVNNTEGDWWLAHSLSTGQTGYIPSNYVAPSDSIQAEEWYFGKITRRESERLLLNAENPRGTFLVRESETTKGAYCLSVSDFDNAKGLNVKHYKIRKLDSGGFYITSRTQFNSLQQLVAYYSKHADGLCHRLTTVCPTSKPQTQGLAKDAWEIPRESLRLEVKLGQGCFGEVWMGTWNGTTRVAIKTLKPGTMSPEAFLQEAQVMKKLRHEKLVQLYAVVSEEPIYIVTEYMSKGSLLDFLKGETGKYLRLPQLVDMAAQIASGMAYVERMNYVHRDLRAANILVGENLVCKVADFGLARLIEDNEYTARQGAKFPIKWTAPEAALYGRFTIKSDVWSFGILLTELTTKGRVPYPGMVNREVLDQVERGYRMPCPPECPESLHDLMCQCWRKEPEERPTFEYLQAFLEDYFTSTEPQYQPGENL

Sequence of Coagulation factor X (P00742 41-179 limits assumed): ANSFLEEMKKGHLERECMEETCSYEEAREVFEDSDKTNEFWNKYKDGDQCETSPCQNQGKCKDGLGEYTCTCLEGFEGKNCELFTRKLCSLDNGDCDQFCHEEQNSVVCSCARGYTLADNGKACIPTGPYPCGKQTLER
Sequence of Coagulation factor X (P00742 235-488 limits assumed): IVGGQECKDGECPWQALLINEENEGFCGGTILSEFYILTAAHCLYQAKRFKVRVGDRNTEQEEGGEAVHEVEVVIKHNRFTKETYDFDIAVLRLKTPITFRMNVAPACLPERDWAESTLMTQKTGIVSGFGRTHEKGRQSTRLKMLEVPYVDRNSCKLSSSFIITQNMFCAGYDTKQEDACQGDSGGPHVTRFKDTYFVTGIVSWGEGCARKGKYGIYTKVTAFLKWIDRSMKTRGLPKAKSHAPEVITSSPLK
Sequence of Serine protease hepsin (P05981 1-162 limits assumed): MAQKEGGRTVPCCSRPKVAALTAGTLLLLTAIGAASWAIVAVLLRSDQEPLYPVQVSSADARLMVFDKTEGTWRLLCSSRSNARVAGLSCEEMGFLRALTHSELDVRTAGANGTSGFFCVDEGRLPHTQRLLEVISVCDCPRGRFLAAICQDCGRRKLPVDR
Sequence of Serine protease hepsin (P05981 163-417 limits assumed): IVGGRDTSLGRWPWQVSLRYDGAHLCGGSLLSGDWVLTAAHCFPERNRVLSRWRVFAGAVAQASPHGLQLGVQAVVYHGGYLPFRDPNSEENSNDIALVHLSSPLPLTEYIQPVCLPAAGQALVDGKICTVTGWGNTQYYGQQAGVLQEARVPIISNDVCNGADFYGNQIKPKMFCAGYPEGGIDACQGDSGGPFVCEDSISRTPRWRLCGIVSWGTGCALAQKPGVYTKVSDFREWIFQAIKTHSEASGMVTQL
Sequence of Hepatocyte growth factor activator serine protease (Q04756 373-407 limits assumed): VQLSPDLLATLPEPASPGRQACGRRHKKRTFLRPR
Sequence of Hepatocyte growth factor activator serine protease (Q04756 408-655 limits assumed): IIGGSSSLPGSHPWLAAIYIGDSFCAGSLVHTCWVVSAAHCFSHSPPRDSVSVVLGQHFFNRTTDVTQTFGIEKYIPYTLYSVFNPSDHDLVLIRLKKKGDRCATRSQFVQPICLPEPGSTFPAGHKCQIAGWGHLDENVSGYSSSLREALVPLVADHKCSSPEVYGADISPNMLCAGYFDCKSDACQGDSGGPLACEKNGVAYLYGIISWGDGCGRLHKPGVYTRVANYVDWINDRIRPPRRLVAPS
Sequence of Suppressor of tumorigenicity 14 protein (Q9Y5Y6 whole entry): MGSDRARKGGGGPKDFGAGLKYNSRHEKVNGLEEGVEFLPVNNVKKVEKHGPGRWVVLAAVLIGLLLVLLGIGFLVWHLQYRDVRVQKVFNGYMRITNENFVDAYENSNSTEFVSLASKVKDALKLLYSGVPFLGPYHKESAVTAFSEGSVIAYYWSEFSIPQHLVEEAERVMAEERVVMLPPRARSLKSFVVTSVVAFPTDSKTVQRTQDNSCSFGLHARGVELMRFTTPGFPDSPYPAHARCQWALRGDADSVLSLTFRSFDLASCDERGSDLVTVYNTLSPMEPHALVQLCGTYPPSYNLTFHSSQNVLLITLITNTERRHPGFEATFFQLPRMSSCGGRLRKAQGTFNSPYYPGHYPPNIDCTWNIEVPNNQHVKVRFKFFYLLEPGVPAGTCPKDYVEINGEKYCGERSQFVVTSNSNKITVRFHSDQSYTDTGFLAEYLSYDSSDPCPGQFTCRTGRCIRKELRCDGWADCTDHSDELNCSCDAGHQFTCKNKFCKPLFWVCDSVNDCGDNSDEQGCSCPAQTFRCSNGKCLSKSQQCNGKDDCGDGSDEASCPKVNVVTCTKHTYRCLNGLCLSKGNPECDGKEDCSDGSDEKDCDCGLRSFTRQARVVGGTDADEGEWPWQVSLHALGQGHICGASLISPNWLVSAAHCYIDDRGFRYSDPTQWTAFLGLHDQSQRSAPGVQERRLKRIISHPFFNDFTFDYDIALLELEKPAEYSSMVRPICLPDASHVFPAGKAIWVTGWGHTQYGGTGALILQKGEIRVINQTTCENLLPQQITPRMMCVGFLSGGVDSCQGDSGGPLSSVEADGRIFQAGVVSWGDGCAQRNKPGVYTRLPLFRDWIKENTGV
Sequence of Histone deacetylase 1 (Q13547 whole entry): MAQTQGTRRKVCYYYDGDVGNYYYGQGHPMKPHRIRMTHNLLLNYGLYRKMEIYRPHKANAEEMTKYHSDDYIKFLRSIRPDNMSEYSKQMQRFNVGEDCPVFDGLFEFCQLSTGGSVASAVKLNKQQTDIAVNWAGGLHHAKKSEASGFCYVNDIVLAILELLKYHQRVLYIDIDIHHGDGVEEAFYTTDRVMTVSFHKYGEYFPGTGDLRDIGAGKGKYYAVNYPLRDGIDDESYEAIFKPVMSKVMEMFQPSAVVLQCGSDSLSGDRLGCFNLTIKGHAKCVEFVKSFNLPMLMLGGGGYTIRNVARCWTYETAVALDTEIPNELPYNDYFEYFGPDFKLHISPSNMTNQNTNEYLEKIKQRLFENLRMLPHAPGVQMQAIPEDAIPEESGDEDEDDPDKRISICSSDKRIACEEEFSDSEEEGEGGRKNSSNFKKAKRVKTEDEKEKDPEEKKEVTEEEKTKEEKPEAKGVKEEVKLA
Sequence of Epidermal growth factor receptor (Homo sapiens) (P00533 whole entry): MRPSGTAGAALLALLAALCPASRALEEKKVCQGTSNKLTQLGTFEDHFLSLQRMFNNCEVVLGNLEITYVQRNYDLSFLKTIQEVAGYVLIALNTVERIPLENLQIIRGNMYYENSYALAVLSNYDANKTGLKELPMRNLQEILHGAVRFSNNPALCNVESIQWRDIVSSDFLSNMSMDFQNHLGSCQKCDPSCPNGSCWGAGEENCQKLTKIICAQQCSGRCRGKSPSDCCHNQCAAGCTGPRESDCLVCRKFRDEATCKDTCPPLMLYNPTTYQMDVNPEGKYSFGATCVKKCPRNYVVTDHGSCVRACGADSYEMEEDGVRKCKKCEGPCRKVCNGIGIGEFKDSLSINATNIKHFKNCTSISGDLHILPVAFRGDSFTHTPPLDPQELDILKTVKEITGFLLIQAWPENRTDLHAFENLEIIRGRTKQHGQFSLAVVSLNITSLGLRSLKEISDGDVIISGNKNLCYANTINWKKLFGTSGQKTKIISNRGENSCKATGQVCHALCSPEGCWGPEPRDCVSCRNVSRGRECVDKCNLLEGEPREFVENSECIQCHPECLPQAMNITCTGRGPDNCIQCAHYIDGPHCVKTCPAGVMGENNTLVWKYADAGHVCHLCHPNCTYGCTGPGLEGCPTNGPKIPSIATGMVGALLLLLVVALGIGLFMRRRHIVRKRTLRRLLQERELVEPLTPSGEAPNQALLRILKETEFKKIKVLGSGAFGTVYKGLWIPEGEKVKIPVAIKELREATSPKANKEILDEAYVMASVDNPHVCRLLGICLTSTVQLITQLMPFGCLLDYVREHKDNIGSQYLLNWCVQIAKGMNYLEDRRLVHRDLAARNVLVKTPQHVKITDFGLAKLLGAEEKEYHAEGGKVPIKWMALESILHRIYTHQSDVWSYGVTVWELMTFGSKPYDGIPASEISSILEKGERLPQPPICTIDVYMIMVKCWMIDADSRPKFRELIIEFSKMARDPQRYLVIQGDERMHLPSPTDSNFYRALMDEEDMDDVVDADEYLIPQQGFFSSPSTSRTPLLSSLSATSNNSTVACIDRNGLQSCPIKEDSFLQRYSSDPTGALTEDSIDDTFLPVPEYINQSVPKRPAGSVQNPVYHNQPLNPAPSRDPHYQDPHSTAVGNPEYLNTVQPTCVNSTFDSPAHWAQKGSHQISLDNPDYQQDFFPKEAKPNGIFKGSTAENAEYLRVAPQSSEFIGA

Molecule `CN(C)C(=S)NN=C(c1ccccn1)c1ccccn1` has an IC50 [1] of 0.001 µM, an IC50 [2] of 0.004 µM and an IC50 [3] of 0.2 µM. The IC50 [4] was 0.001 µM.
In the case of `NC(=S)N/N=C/c1ncccc1N` [TRIAPINE], the IC50 [5] is reported as 1.3 µM.
Work on `Clc1ccc(/C=N\Nc2ccc(-c3nc4ccccc4s3)cc2)cc1` yielded an IC50 [6] of 0.027 µM and an inhibition [7] of 47.3%.
With `COC(=O)Nc1nc2cc(C(=O)c3cccs3)ccc2[nH]1` the inhibition [8] was 58.3%.
For `C/C1=C/C(=O)O[C@@H]2C[C@@H](CC[C@H](C)/C=C\C=C\CC1)O[C@@](O)([C@@H]1CSC(=O)N1)C2` [LATRUNCULIN A], the inhibition at 0.1 µg/mL [9] was greater than 95%, the Activity [10] was less than 50% and the inhibition at 0.1 µg/mL [11] was greater than 95%.
Work on `CN(C(=S)NN=C(c1ccccn1)c1ccccn1)C1CCCCC1` yielded an IC50 [1] of 0.005 µM, an IC50 [2] of 0.03 µM and an IC50 [3] of 0.203 µM. It also gave an IC50 [4] of 0.02 µM.
For `COc1ccc(C(=O)CCc2cn3c(n2)sc2ccccc23)cc1`, the inhibition [8] was 61.4% and the IC50 [12] was 1.2 µM.
`CC/C(=N\Nc1nc(-c2ccc(OC)cc2)cs1)c1cccc(Br)c1` gave a CC50 [13] of 114 µM and a CC50 [14] of 62 µM.
`CC(=O)N[C@@H](CCCCN)C(=O)N[C@@H](CCCNC(=N)N)C(=O)N[C@@H](CC(C)C)C(=O)N[C@@H](CCCNC(=N)N)C(=O)c1nc2ccc(C(=O)NCc3ccc(C(=O)O)cc3)cc2s1` showed a Ki [15] of 0.0037 µM, a Ki [16] of 0.0025 µM and a Ki [17] of 0.029 µM. It also gave a Ki [18] of 0.00067 µM.
With `O=C(CN1CCN(c2nc3ccccc3s2)CC1)NNC(=O)c1ccc(Br)cc1` the IC50 [19] was 25 µM, the IC50 [20] was 23 µM and the IC50 [21] was 22.6 µM.
For `COc1ccccc1C(=O)Nc1ccc2nc(SCC(=O)NCc3ccc(Cl)cc3)sc2c1`, the IC50 [22] was 4.3 µM, the IC50 [23] was 1.2 µM and the IC50 [24] was 6.5 µM. The IC50 [25] was 1.9 µM, the IC50 [26] was greater than 40 µM and the IC50 [27] was 4.3 µM. It also gave an Activity [28] of 19.5, an Activity [29] of 6 and an IC50 [30] of 2.4 µM. The Activity [31] was 189 CFU, the IC50 [32] was greater than 40 µM and the Activity [33] was 56 CFU. For the same molecule, the IC50 [34] was 12.3 µM, the IC50 [35] was greater than 40 µM and the IC50 [36] was 5.6 µM.
Molecule `O=C(CCCOc1ccc(N2C(=O)CSC2c2ccc(Br)s2)cc1)NO` (configuration not stated) has an IC50 [37] of 0.073 µM.
In the case of `Nc1ccn([C@@H]2O[C@H](CO)[C@@H](O)C2(F)F)c(=O)n1` [GEMCITABINE], the IC50 [1] is reported as 0.016 µM, the IC50 [2] is reported as 11 µM and the IC50 [3] is reported as 0.022 µM. It also gave an IC50 [4] of 40.8 µM.
Work on `CC[C@H](NC(C)=O)C(=O)N[C@@H](CCCN)C(=O)N[C@@H](CC(C)C)C(=O)N[C@@H](CCCNC(=N)N)C(=O)c1nc2ccc(C(=O)NC3CCNCC3)cc2s1` yielded a Ki [15] of 0.0072 µM, a Ki [16] of 0.0013 µM and a Ki [17] of 0.447 µM. It also gave a Ki [38] of 2.95 µM and a Ki [18] of 0.00027 µM.
In the case of `O=C1c2ccccc2C(=O)N1C/C=N\N=c1\scc(-c2cccc([N+](=O)[O-])c2)n1-c1ccccc1`, the CC50 [13] is reported as 21.2 µM and the CC50 [14] is reported as 21.3 µM.
`Cc1nc(Nc2ncc(-c3ccccc3)s2)cc(N2CCN(CCO)CC2)n1` showed an IC50 [39] of 0.097 µM.
`COc1ccc2c(c1)sc1nc(CCC(=O)c3ccc(OC)c(O)c3)cn12` gave an inhibition [8] of 59.2% and an IC50 [12] of 1.3 µM.
In the case of `C/C(=N\NC1SC=C(c2ccc3ccccc3c2)N1C)c1ccccn1` (configuration not stated), the CC50 [13] is reported as 16.2 µM and the CC50 [14] is reported as 57.8 µM.
For `O=c1[nH]cc(F)c(=O)[nH]1` [FLUOROURACIL], the IC50 [1] was 24.3 µM, the IC50 [2] was 62.3 µM and the IC50 [3] was 41.2 µM. For the same molecule, the IC50 [4] was 54.2 µM.
